Test results as given in PMC3084834, “Non-Conjugated Small Molecule FRET for Differentiating Monomers from Higher Molecular Weight Amyloid Beta Species” (PLoS ONE, 2011).

Key:
[1] = target: T1, Amyloid beta 40 (Aβ40) aggregates (Homo sapiens, UniProt P05067); experiment: FRET with CRANAD-5 on Aβ[…] aggregates; apparent Kd printed in Results; format: binding; conditions: cited from earlier work
T1 construct: gene APP; synthetic amyloid-β peptide (1-40), aggregated

[2] = target: T1, Amyloid beta 40 (Aβ40) aggregates; experiment: fluorescence titration of Aβ[…] aggregates, one-site binding fit

T1 sequence (P05067 672-711 limits assumed): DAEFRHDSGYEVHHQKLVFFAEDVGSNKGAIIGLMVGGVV

SMILES | Kd [1] [nM] | Kd [2] [nM]
CN(C)c1ccc(/C=C/C2=CC(/C=C/c3ccc(N(C)C)cc3)=[O+][B-](F)(F)O2)cc1 [CRANAD-2] | 38 | 
CN(C)c1ccc(/C=C/C(=O)/C=C(O)/C=C/c2ccc(N(C)C)cc2)cc1 [CRANAD-5] |  | 10.5 ± 2.5
